Experimental data published in ChEMBL document CHEMBL1201862, “PubChem BioAssay data set” (2004).
Counter-ions that a name gives are not always drawn.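 Method: 48-hour compound exposure of cells in 96-well plates, five concentrations, linear interpolation of endpoints. GI50 is the concentration that inhibits growth by half.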 Calls of active or inactive are those of the source. No stated cut-off is given here; in the data, active = GI50 up to about 1.1 µM and inactive = higher.

Assays:
Assay in all cases: NCI-60 cell line screen, 48 h
MCF7 = system: MCF7
MOLT-4 = system: MOLT-4
SF-268 = system: SF-268
SR = system: SR
UO-31 = system: UO-31
BT-549 = system: BT-549
HCC 2998 = system: HCC 2998
PC-3 = system: PC-3
RXF 393 = system: RXF 393
SK-MEL-5 = system: SK-MEL-5
UACC-62 = system: UACC-62
CAKI-1 = system: CAKI-1
ACHN = system: ACHN
HL-60 = system: HL-60
RPMI-8226 = system: RPMI-8226
NCI-H460 = system: NCI-H460
HCT-15 = system: HCT-15
HT-29 = system: HT-29
MDA-N = system: MDA-N
NCI-H23 = system: NCI-H23

Structure (SMILES)	GI50 (MCF7)	GI50 (MOLT-4)	GI50 (SF-268)	GI50 (SR)	GI50 (UO-31)	GI50 (BT-549)	GI50 (HCC 2998)	GI50 (PC-3)	GI50 (RXF 393)	GI50 (SK-MEL-5)	GI50 (UACC-62)	GI50 (CAKI-1)	GI50 (ACHN)	GI50 (HL-60)	GI50 (RPMI-8226)	GI50 (NCI-H460)	GI50 (HCT-15)	GI50 (HT-29)	GI50 (MDA-N)	GI50 (NCI-H23)
C[C@H](CCC(=O)O[C@@H]1CC[C@@]2(C)C(CC[C@H]3[C@@H]4CC[C@H]([C@H](C)CCc5nc6ccccc6[nH]5)[C@@]4(C)CC[C@@H]32)C1)[C@H]1CC[C@H]2[C@@H]3CCC4C[C@H](O)CC[C@]4(C)[C@H]3CC[C@]12C (stereo not given in full)	6.34 µM (inactive)	> 100 µM (inactive)	5.38 µM (inactive)	> 100 µM (inactive)	2.43 µM (inactive)	> 100 µM (inactive)	2.54 µM (inactive)	> 100 µM (inactive)	> 100 µM (inactive)	> 100 µM (inactive)	> 100 µM (inactive)	> 31.3 µM (inactive)	4.13 µM (inactive)	> 100 µM (inactive)	> 100 µM (inactive)	0.518 µM (active)	> 80.2 µM	> 57.5 µM (inactive)	> 100 µM (inactive)	4.53 µM (inactive)
O=C(NCCc1ccccn1)c1ccc2cc(C(=O)N3CC(CCl)c4ccc([N+](=O)[O-])cc43)[nH]c2c1 (stereo not given)	> 67.9 µM (inactive)	> 100 µM (inactive)	7.1 µM (inactive)	> 100 µM (inactive)	> 49.8 µM (inactive)	> 100 µM (inactive)	61.5 µM (inactive)	44.6 µM (inactive)	7.66 µM (inactive)	> 61.5 µM (inactive)	8.99 µM (inactive)	> 24.2 µM (inactive)	36.6 µM (inactive)	> 100 µM (inactive)	> 100 µM (inactive)	22.7 µM (inactive)	77.4 µM	> 100 µM (inactive)	> 100 µM (inactive)	45.3 µM (inactive)
O=C(N/N=C/c1ccc2c(c1)CCC2)c1ccccc1O	16.2 µM (inactive)	36.9 µM (inactive)	23.8 µM (inactive)	30.9 µM (inactive)	29 µM (inactive)	19.3 µM (inactive)	13.3 µM (inactive)	19.7 µM (inactive)	23 µM (inactive)	33.9 µM (inactive)	22 µM (inactive)	28.4 µM (inactive)	18.6 µM (inactive)	23.2 µM (inactive)	32.5 µM (inactive)	22.1 µM (inactive)	22.9 µM	27.3 µM (inactive)	19.4 µM (inactive)	24.2 µM (inactive)
Cc1cc(N)c2ccccc2[n+]1CCCCCCCCCC[n+]1c(C)cc(N)c2ccccc21 [DEQUALINIUM CHLORIDE]	0.423 µM (active)	0.964 µM (active)	1.39 µM (inactive)	0.472 µM (active)	4.43 µM (inactive)	1 µM (active)	0.904 µM (active)	1.07 µM (active)	10.4 µM (inactive)	0.528 µM (active)	1.82 µM (inactive)	7.06 µM (inactive)	1.11 µM (active)	0.533 µM (active)	0.375 µM (active)	0.54 µM (active)	4.31 µM	1 µM (active)	1.33 µM (inactive)	0.41 µM (active)
CC(C)=C1CCC(CN2CCOCC2)C1=O (stereo not given)	4.14 µM (inactive)	2.34 µM (inactive)	15.2 µM (inactive)	3.57 µM (inactive)	18.1 µM (inactive)	17.3 µM (inactive)	15.4 µM (inactive)	17.5 µM (inactive)	2.07 µM (inactive)	15.9 µM (inactive)	17 µM (inactive)	0.348 µM (active)	9.84 µM (inactive)	4.12 µM (inactive)	0.953 µM (active)	27.2 µM (inactive)	5.22 µM	8.65 µM (inactive)	19.1 µM (inactive)	17.7 µM (inactive)
O=[N+]([O-])c1cc(-c2nc(-c3ccccc3)c(-c3ccccc3)[nH]2)c(O)c([N+](=O)[O-])c1	24.7 µM (inactive)	22.8 µM (inactive)	30.1 µM (inactive)	20.8 µM (inactive)	18.2 µM (inactive)	20 µM (inactive)	16.6 µM (inactive)	20.3 µM (inactive)	17.4 µM (inactive)	17.7 µM (inactive)	17.5 µM (inactive)	27.4 µM (inactive)	21.6 µM (inactive)	25.6 µM (inactive)	27 µM (inactive)	21.5 µM (inactive)	15.8 µM	16.8 µM (inactive)	31.1 µM (inactive)	16.9 µM (inactive)
O=[N+]([O-])c1ccc2ncccc2c1CCc1c([N+](=O)[O-])ccc2ncccc12	> 100 µM (inactive)	> 100 µM (inactive)	> 100 µM (inactive)	> 100 µM (inactive)	> 100 µM (inactive)	> 100 µM (inactive)	> 100 µM (inactive)	> 100 µM (inactive)	> 100 µM (inactive)	> 100 µM (inactive)	> 100 µM (inactive)	> 100 µM (inactive)	> 100 µM (inactive)	> 100 µM (inactive)	> 100 µM (inactive)	> 100 µM (inactive)	> 100 µM	> 100 µM (inactive)	> 100 µM (inactive)	> 100 µM (inactive)
CC(=O)N1c2ccccc2C(C)C1c1[nH]c2ccccc2c1C (stereo not given)	28.1 µM (inactive)	19.7 µM (inactive)	23.4 µM (inactive)	13.9 µM (inactive)	17.2 µM (inactive)	22.5 µM (inactive)	16.3 µM (inactive)	31.3 µM (inactive)	13 µM (inactive)	13.7 µM (inactive)	18.4 µM (inactive)	22.8 µM (inactive)	32.3 µM (inactive)	18.6 µM (inactive)	13 µM (inactive)	19.3 µM (inactive)	27.2 µM	20.2 µM (inactive)	19.9 µM (inactive)	23.8 µM (inactive)
Cc1cc(C)nc(NS(=O)(=O)c2ccc(NNc3c4ccccc4nc4c(C(=O)Nc5ccc(S(=O)(=O)Nc6ncccn6)cc5)cccc34)cc2)n1	52.8 µM (inactive)	32.5 µM (inactive)	31.9 µM (inactive)	8.41 µM (inactive)	30.2 µM (inactive)	36.8 µM (inactive)	26.7 µM (inactive)	26.5 µM (inactive)	35.3 µM (inactive)	21.2 µM (inactive)	25.2 µM (inactive)	36.3 µM (inactive)	23.3 µM (inactive)	25.7 µM (inactive)	29.9 µM (inactive)	25.6 µM (inactive)	32.7 µM	27.9 µM (inactive)	31.1 µM (inactive)	23 µM (inactive)
O=C1c2cccc3cccc(c23)C(=O)N1CCCNCCCCNCCCNCCCN1C(=O)c2cccc3cccc(c23)C1=O [BISNAPHTHALIMIDOPROPYL SPERMIDINE TRIHYDROBROMIDE]	0.0343 µM (active)	0.0333 µM (active)	0.282 µM (active)	0.0787 µM (active)	6.5 µM (inactive)	1.64 µM (inactive)	0.586 µM (active)	0.535 µM (active)	0.473 µM (active)	2.02 µM (inactive)	0.458 µM (active)	4.01 µM (inactive)	1.22 µM (inactive)	0.172 µM (active)	0.355 µM (active)	0.323 µM (active)	11.7 µM	0.231 µM (active)	0.792 µM (active)	0.35 µM (active)
